{"source": "patent US9682976B2", "about": "“Protein kinase C inhibitors and uses thereof” (Rigel Pharmaceuticals, Inc., priority 2012, dated 2017)", "note": "Counter-ions that a name gives are not always drawn.", "data": [{"tested_on": "PKC mediated IL-2 production", "assay": "IL-2 ELISA, human primary T cell, anti CD3+CD28+", "format": "cell-based", "conditions": "Homo sapiens, T-cell, 24 h, human primary T cells stimulated with αCD3 and αCD28, 24 hours", "summary_of_the_method": "(§1)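 IL-2 was quantified by ELISA in 24 h supernatants from primary human T cells given a 1 h compound pre-treatment at 37° C. These cells had been expanded from blood mononuclear cells on αCD3/αCD28 with IL-2, and the IL-2 was removed by washing. Stimulation used plate-bound αCD3 ([…]) plus αCD28 (5 μg/ml); the counter assay used PMA (0.5 ng/ml) with ionomycin (0.1 uM) instead.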", "units": {"EC50": "µM"}, "values": [{"compound": "CC1(C)C[C@H](Nc2nc(Nc3ccc(OCCCO)c(-n4cnnn4)c3)ncc2F)C[C@@H]2CCCN21", "note": "[Compound 215, 3-(4-((4-(((7R,8aS)-5,5-dimethyloctahydroindolizin-7-yl)amino)-5-fluoropyrimidin-2-yl)amino)-2-(1H-tetrazol-1-yl)phenoxy)propan-1-ol]", "EC50": "< 0.1"}, {"compound": "COC(=O)c1ccc(Nc2ncc(F)c(N[C@@H]3C[C@@H]4CCCN4C(C)(C)C3)n2)cc1C(F)(F)F", "note": "[Compound 320]", "EC50": "0.1 to 0.5"}, {"compound": "CC1(C)C[C@H](Nc2nc(Nc3ccc4c(c3)-n3nnnc3C3(CCOCC3)O4)ncc2F)C[C@@H]2CCCN21", "note": "[Compound 137, N4-((7R,8aS)-5,5-dimethyloctahydroindolizin-7-yl)-5-fluoro-N2-(2′,3′,5′,6′-tetrahydrospiro[benzo[b]tetrazolo[1,5-d][1,4]oxazine-4,4′-pyran]-8-yl)pyrimidine-2,4-diamine]", "EC50": "< 0.1"}, {"compound": "COc1ccc(Nc2ncc(F)c(N[C@@H]3C[C@@H]4CCCN4C(C)(C)C3)n2)cc1-n1nnn(C2COC2)c1=O", "note": "[Compound 285, 1-(5-(4-((7R,8aS)-octahydro-5,5-dimethylindolizin-7-ylamino)-5-fluoropyrimidin-2-ylamino)-2-methoxyphenyl)-4-(oxetan-3-yl)-1H-tetrazol-5(4H)-one]", "EC50": "0.1 to 0.5"}, {"compound": "CC(O)c1cc(F)c(Nc2ncc(F)c(N[C@@H]3C[C@@H]4CCCN4C(C)(C)C3)n2)cc1-n1nnn(C)c1=O", "note": "(stereo partly shown) [Compound 94]", "EC50": "0.1 to 0.5"}, {"compound": "CC(C)Oc1cc(F)c(Nc2ncc(F)c(N[C@@H]3C[C@@H]4CCCN4C(C)(C)C3)n2)cc1-n1nnnc1C1CC1", "note": "[Compound 257, N2-(5-(5-cyclopropyl-1H-tetrazol-1-yl)-2-fluoro-4-isopropoxyphenyl)-5-fluoro-N4-((7R,8aS)-octahydro-5,5-dimethylindolizin-7-yl)pyrimidine-2,4-diamine]", "EC50": "> 10"}, {"compound": "COc1cc(F)c(Nc2ncc(F)c(N[C@@H]3C[C@@H]4CCCN4C(C)(C)C3)n2)cc1-n1nnn(C)c1=O", "note": "[Compound 22, 1-(5-(4-((7R,8aS)-5,5-dimethyl-octahydroindolizin-7-ylamino)-5-fluoropyrimidin-2-ylamino)-4-fluoro-2-methoxyphenyl)-4-methyl-1H-tetrazol-5(4H)-one]", "EC50": "0.1 to 0.5"}, {"compound": "COc1cc(Nc2ncc(F)c(N[C@@H]3C[C@@H]4CCCN4C(C)(C)C3)n2)c(F)c(-n2nnnc2C)c1", "note": "[Compound 241, 5-fluoro-N2-(2-fluoro-5-methoxy-3-(5-methyl-1H-tetrazol-1-yl)phenyl)-N4-((7R,8aS)-octahydro-5,5-dimethylindolizin-7-yl)pyrimidine-2,4-diamine]", "EC50": "0.1 to 0.5"}, {"compound": "CC1(C)C[C@H](Nc2nc(Nc3ccc4c(c3)-n3nnnc3C(CO)(CO)O4)ncc2F)C[C@@H]2CCCN21", "note": "[Compound 125, (8-((4-(((7R,8aS)-5,5-dimethyloctahydroindolizin-7-yl)amino)-5-fluoropyrimidin-2-yl)amino)-4H-benzo[b]tetrazolo[1,5-d][1,4]oxazine-4,4-diyl)dimethanol]", "EC50": "1 to 10"}, {"compound": "CC1(C)C[C@H](Nc2nc(Nc3cccc(-n4nnnc4S)c3)ncc2F)C[C@@H]2CCCN21", "note": "[Compound 259, 1-(3-(4-((7R,8aS)-octahydro-5,5-dimethylindolizin-7-ylamino)-5-fluoropyrimidin-2-ylamino)phenyl)-1H-tetrazole-5-thiol]", "EC50": "1 to 10"}, {"compound": "CC1(C)CC(Nc2nc(Nc3ccc(OC4COC4)c(C#N)c3)ncc2F)CC2CCCN21", "note": "(stereo not shown) [Compound 63, 5-(5-Fluoro-4-(octahydro-5,5-dimethylindolizin-7-ylamino)pyrimidin-2-ylamino)-2-(oxetan-3-yloxy)benzonitrile]", "EC50": "0.1 to 0.5"}, {"compound": "C[S+]([O-])c1nnnn1-c1cccc(Nc2ncc(F)c(N[C@@H]3C[C@@H]4CCCN4C(C)(C)C3)n2)c1", "note": "(stereo partly drawn) [Compound 270, 5-fluoro-N4-((7R,8aS)-octahydro-5,5-dimethylindolizin-7-yl)-N2-(3-(5-(methylsulfinyl)-1H-tetrazol-1-yl)phenyl)pyrimidine-2,4-diamine]", "EC50": "0.5 to 1"}, {"compound": "Cn1nnn(-c2cc(Nc3ncc(Cl)c(N[C@@H]4C[C@@H]5CCCN5C(C)(C)C4)n3)c(F)cc2O)c1=O", "note": "[Compound 232, 1-(5-((5-chloro-4-(((7R,8aS)-5,5-dimethyloctahydroindolizin-7-yl)amino)pyrimidin-2-yl)amino)-4-fluoro-2-hydroxyphenyl)-4-methyl-1,4-dihydro-5H-tetrazol-5-one]", "EC50": "0.5 to 1"}, {"compound": "CO[C@@H](C)COc1cc(F)c(Nc2ncc(F)c(N(C[C@H](C)OC)[C@@H]3C[C@@H]4CCCN4C(C)(C)C3)n2)cc1-n1nnn(C)c1=O", "note": "[Compound 234, 1-(5-((4-(((7R,8aS)-5,5-dimethyloctahydroindolizin-7-yl)((S)-2-methoxypropyl)amino)-5-fluoropyrimidin-2-yl)amino)-4-fluoro-2-((S)-2-methoxypropoxy)phenyl)-4-methyl-1,4-dihydro-5H-tetrazol-5-one]", "EC50": "> 10"}, {"compound": "Cc1nnnn1-c1ccc(F)c(Nc2ncc(F)c(N[C@@H]3C[C@@H]4CCCN4C(C)(C)C3)n2)c1", "note": "[Compound 142, N4-((7R,8aS)-5,5-dimethyloctahydroindolizin-7-yl)-5-fluoro-N2-(2-fluoro-5-(5-methyl-1H-tetrazol-1-yl)phenyl)pyrimidine-2,4-diamine]", "EC50": "< 0.1"}, {"compound": "CC1(C)C[C@H](Nc2nc(Nc3ccc(F)c(-n4nnnc4C4CC4)c3)ncc2Cl)C[C@@H]2CCCN21", "note": "[Compound 163, 5-chloro-N2-(3-(5-cyclopropyl-1H-tetrazol-1-yl)-4-fluorophenyl)-N4-((7R,8aS)-5,5-dimethyloctahydroindolizin-7-yl)pyrimidine-2,4-diamine]", "EC50": "< 0.1"}, {"compound": "COc1cc(Nc2ncc(F)c(N[C@@H]3C[C@@H]4CCCN4C(C)(C)C3)n2)ccc1OCCO", "note": "[Compound 216, 2-(4-((4-(((7R,8aS)-5,5-dimethyloctahydroindolizin-7-yl)amino)-5-fluoropyrimidin-2-yl)amino)-2-methoxyphenoxy)ethan-1-ol]", "EC50": "> 10"}]}, {"tested_on": "PKC mediated IL-2 production", "assay": "IL-2 ELISA, human primary T cell, anti CD3+CD28+", "format": "cell-based", "conditions": "human primary T cells stimulated with αCD3 and αCD28, 24 hours", "summary_of_the_method": "as §1", "units": {"EC50": "µM"}, "values": [{"compound": "CC(=O)N(C)c1cc(Nc2ncc(F)c(NC3CC(C)(C)N4CCCC4C3C)n2)c(F)cc1C1CC1", "note": "(stereo not shown) [Compound 73]", "EC50": "0.1 to 0.5"}, {"compound": "CC1(C)Oc2c(F)cc(Nc3ncc(F)c(NC4CC5CCCN5C(C)(C)C4)n3)cc2-n2nnnc21", "note": "(stereo not shown) [Compound 5]", "EC50": "0.1 to 0.5"}, {"compound": "COc1cc(Nc2ncc(F)c(N[C@H]3C[C@H]4CCCN4C(C)(C)C3)n2)cc(-n2nnnc2C)c1", "note": "(single isomer, unassigned) [Compound 11, (R/S, S/R, R/R, S/S)-5-fluoro-N4-(octahydro-5,5-dimethylindolizin-7-yl)N2-(3-methoxy-5-(5-methyl-1H-tetrazol-1-yl)phenyl)pyrimidine-2,4-diamine]", "EC50": "1 to 10"}, {"compound": "Cn1nnn(-c2cc(Nc3ncc(F)c(N[C@H]4C[C@@H]5CCC(=O)N5C(C)(C)C4)n3)c(F)cc2C2CC2)c1=O", "note": "[Compound 33, 1-(5-(5-fluoro-4-(hexahydro-5,5-dimethylindolizin-3(5H)-one-7-ylamino)pyrimidin-2-ylamino)-2-cyclopropyl-4-fluorophenyl)-4-methyl-1H-tetrazol-5(4H)-one formate]", "EC50": "1 to 10"}, {"compound": "CC1(C)CC(Nc2nc(Nc3ccc(O[C@H]4CCOC4)c(C#N)c3)ncc2F)CC2CCCN21", "note": "(single isomer, unassigned) [Compound 61]", "EC50": "0.5 to 1"}]}]}
